Test [1] concerns IL-2 in Jurkat (ATCC, clone E6.1) cells stimulated with anti-CD3/28/2. Description: Jurkat IL-2 Assay. The class given is cell-based. The settings on record: Homo sapiens. The procedure: Inhibition was determined in a cell-based assay using Jurkat (ATCC, clone E6.1), an immortalized T-cell line, exposed to a dose response of compound and assessed for viability, and Il-2 inhibition by ELISA. Cells were cultured in RPMI/10% FBS (Invitrogen 11875093, Atlanta Biologicals S12450H), maintained below 3E6/mL and only used in assays while below passage 25. Compounds were stamped by ECHO onto 384w plates (PerkinElmer Culturplate, 6007680). The cells were plated in fresh media on top of compound and incubated for 30 minutes before stimulation with soluble anti-CD3/28/2 (Stemcell, 10970) for 24 hours. Supernatant was collected and assessed for Il-2 (MSD, 384w, L21SA-1). To assess viability of cells treated with compound, cells were lysed with CTG reagent (Promega, G7570), and measured by luminometer. […] IC50s calculated using 4-parameter fit in GraphPad Prism.
In this table, “A” indicates IC50 of less than 0.1 μM; “B” indicates IC50 from 0.1 μM up to 1 μM; and “C” indicates IC50 of greater than 1 μM. “N/A” indicates not tested. For a compound that was tested in more than one experiment, the result shown represents the mean value.

A further test concerns the target full length MALT1 (Homo sapiens (Human), UniProt Q9UDY8). The test is described as follows: MALT1 Biochemical Assay. Particulars: 15 nM enzyme, 30 μM peptide substrate Ac-Leu-Arg-Ser-Arg-Rh110-dPro, 30 min pre-incubation, 60 min reaction; mean value if tested more than once. The procedure:
Inhibitor potency was evaluated by measuring enzymatic activity of full length MALT1 at varying concentrations of compound. The enzymatic assay consists of a single substrate reaction that monitors the release of a fluorescent dye upon cleavage of the peptide substrate. […] The assay buffer consists of 50 mM Hepes, pH 7.5, 0.8 M sodium citrate, 1 mM DTT, 0.004% tween-20, and 0.005% bovine serum albumin (BSA). […] The reaction was quenched after 60 minutes with the addition of iodoacetate at a final concentration of 10 mM. Total fluorescence was measured using an Envision (PerkinElmer) with fluorescence excitation at 485 nm and emission at […].
For potency determination, 1 μL of serially diluted compound (in 100% DMSO) was pre-incubated with 40 μL of enzyme for 30 minutes. The reaction was initiated with the addition of 10 μL of peptide substrate. The relative fluorescence units were transformed to percent inhibition by using 0% and 100% inhibition controls as reference. […] IC50 values were calculated by fitting the concentration-response curves to a four-parameter logistic equation in GraphPad Prism.

Setting [2] is: IL-2 inhibition, Jurkat cells, 30 min compound then anti-CD3/28/2 stimulation for 24 hours, mean value if tested more than once, read-out: IC50.

Structures are written as SMILES. Where a name gives a salt, the structure may show the parent alone. Read-outs that look alike come from different tables or passages of the source.

As a reminder, the IC50 is the concentration that inhibits the measured activity by half.

full length MALT1, sequence (Q9UDY8 whole entry): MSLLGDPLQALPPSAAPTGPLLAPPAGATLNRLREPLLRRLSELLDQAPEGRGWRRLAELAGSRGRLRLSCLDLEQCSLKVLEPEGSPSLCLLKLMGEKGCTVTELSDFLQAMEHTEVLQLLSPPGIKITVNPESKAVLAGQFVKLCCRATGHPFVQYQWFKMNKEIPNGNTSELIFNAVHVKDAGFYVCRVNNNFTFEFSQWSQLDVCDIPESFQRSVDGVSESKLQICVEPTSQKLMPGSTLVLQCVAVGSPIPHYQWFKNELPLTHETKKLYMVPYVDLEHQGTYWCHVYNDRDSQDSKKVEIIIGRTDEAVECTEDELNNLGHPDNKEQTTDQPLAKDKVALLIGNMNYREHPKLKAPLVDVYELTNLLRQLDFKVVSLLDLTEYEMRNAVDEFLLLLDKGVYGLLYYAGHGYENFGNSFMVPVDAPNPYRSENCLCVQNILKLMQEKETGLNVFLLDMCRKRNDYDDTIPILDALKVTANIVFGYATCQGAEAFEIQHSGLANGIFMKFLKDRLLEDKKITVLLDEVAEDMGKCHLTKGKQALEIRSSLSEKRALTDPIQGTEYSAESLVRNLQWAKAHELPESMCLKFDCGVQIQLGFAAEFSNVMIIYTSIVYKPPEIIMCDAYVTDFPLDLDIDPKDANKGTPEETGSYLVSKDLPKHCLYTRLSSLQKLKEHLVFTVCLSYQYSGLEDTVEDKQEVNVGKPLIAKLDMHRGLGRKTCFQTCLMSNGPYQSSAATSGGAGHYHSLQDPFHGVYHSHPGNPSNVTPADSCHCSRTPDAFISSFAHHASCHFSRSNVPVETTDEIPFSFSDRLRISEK

`COC(=O)NC1CCC(C(=O)N(C)[C@@H](c2ccc(Nc3cnc4nc(Cl)nn4c3[C@H](C)OC)cc2)C(F)(F)F)CC1` (stereo partly drawn) [Compound 1.16, methyl (4-(((S)-1-(4-((2-chloro-7-((S)-1-methoxyethyl)-[1,2,4]triazolo[1,5-a]pyrimidin-6-yl)amino)phenyl)-2,2,2-trifluoroethyl)(methyl)carbamoyl)cyclohexyl)carbamate]: the figures for the IC50 (in test [1] (setting [2]); at full length MALT1) were 0.1 to 1 µM and less than 0.1 µM, respectively.

As to `CO[C@@H](C)c1c(Nc2ccc([C@H](N(C)C(=O)C3CCC(CN)CC3)C(F)(F)F)cc2)cnc2nc(Cl)nn12` (stereo partly drawn) [Compound 2.4, 4-(aminomethyl)-N-[(1S)-1-[4-({2-chloro-7-[(1S)-1-methoxyethyl]-[1,2,4]triazolo[1,5-a]pyrimidin-6-yl}amino)phenyl]-2,2,2-trifluoroethyl]-N-methylcyclohexane-1-carboxamide; Formic Acid], the values for the IC50 (in test [1] (setting [2]); against full length MALT1) were 0.1 to 1 µM and less than 0.1 µM, respectively.

Regarding `CO[C@H](C)c1c(Nc2ccc([C@@H](N(C)C(=O)C3CCS(=O)(=O)CC3)C(F)(F)F)cc2)cnc2nc(Cl)nn12` [Compound 1.27, N-[(1R)-1-[4-({2-chloro-7-[(1R)-1-methoxyethyl]-[1,2,4]triazolo[1,5-a]pyrimidin-6-yl}amino)phenyl]-2,2,2-trifluoroethyl]-N-methyl-1,1-dioxo-1λ^6-thiane-4-carboxamide], the IC50 (in test [1] (setting [2]); on full length MALT1) was more than 1 µM each time.

As for `CO[C@@H](C)c1c(Nc2ccc([C@H](N(C)C(=O)C3CCS(=O)(=O)CC3)C(F)(F)F)cc2C)cnc2nc(Cl)nn12` [Compound 1.33, N-[(1S)-1-[4-({2-chloro-7-[(1S)-1-methoxyethyl]-[1,2,4]triazolo[1,5-a]pyrimidin-6-yl}amino)-3-methylphenyl]-2,2,2-trifluoroethyl]-N-methyl-1,1-dioxo-1λ^6-thiane-4-carboxamide], the IC50 in test [1] (setting [2]) is more than 1 µM; against full length MALT1, 0.1 to 1 µM.

Regarding `CO[C@@H](C)c1c(Nc2ccc([C@H](N(C)C(=O)C3CCC(NC(C)=O)CC3)C(F)(F)F)cc2)cnc2nc(Cl)nn12` (stereo partly drawn) [Compound 1.17, N-[(1S)-1-[4-({2-chloro-7-[(1S)-1-methoxyethyl]-[1,2,4]triazolo[1,5-a]pyrimidin-6-yl}amino)phenyl]-2,2,2-trifluoroethyl]-4-acetamido-N-methylcyclohexane1-carboxamide], the IC50 in test [1] (setting [2]) is 0.1 to 1 µM; against full length MALT1, less than 0.1 µM.

Regarding `CO[C@@H](C)c1c(Nc2ccc([C@H](N(C)C(=O)C3CCNCC3)C(F)(F)F)cc2)cnc2nc(Cl)nn12` [Compound 2.1, N—((S)-1-(4-((2-chloro-7-((S)-1-methoxyethyl)-[1,2,4]triazolo[1,5-a]pyrimidin-6-yl)amino)phenyl)-2,2,2-trifluoroethyl)-N-methylpiperidine-4-carboxamide trifluoroacetate], the IC50 (in test [1] (Jurkat); at full length MALT1) was 0.1 to 1 µM throughout.

For the compound `CO[C@@H](C)c1c(Nc2ccc(C(C)N(C)C(=O)C3CCCCC3)cc2)cnc2nc(Cl)nn12` (stereo partly drawn) [Compound 1.21, N-{1-[4-({2-chloro-7-[(1S)-1-methoxyethyl]-[1,2,4]triazolo[1,5-a]pyrimidin-6-yl}amino)phenyl]ethyl}-N-methylcyclohexanecarboxamide], the IC50 (in test [1] (setting [2]); at full length MALT1) was more than 1 µM each time.

Regarding `CO[C@@H](C)c1c(Nc2ccc([C@H](N(C)C(=O)C3CC3)C(F)(F)F)cc2C)cnc2nc(Cl)nn12` [Compound 1.32, N-[(1S)-1-[4-({2-chloro-7-[(1S)-1-methoxyethyl]-[1,2,4]triazolo[1,5-a]pyrimidin-6-yl}amino)-3-methylphenyl]-2,2,2-trifluoroethyl]-N-methylcyclopropanecarboxamide], the 50% inhibitory concentration (IC50) was more than 1 µM in test [1] (setting [2]) and 0.1 to 1 µM on full length MALT1.

As to `CO[C@@H](C)c1c(Nc2ccc([C@H](N(C)C(C)=O)C(F)(F)F)cc2)cnc2nc(Cl)nn12` [Compound 1.2, N-[(1S)-1-[4-({2-chloro-7-[(1S)-1-methoxyethyl]-[1,2,4]triazolo[1,5-a]pyrimidin-6-yl}amino)phenyl]-2,2,2-trifluoroethyl]-N-methylacetamide], the IC50 (in test [1] (setting [2]); on full length MALT1) was 0.1 to 1 µM throughout.

On to `CO[C@@H](C)c1c(Nc2ccc([C@H](N(C)C(=O)C3CCOC3)C(F)(F)F)cc2)cnc2nc(Cl)nn12` (some centres unmarked) [Compound 1.6], for which the IC50 in test [1] (setting [2]) was 0.1 to 1 µM; on full length MALT1, less than 0.1 µM.

For `CO[C@@H](C)c1c(Nc2ccc([C@H](N(C)C(=O)C3CCCCO3)C(F)(F)F)cc2)cnc2nc(Cl)nn12` (stereo partly drawn) [Compound 1.3, N-[(1S)-1-[4-({2-chloro-7-[(1S)-1-methoxyethyl]-[1,2,4]triazolo[1,5-a]pyrimidin-6-yl}amino)phenyl]-2,2,2-trifluoroethyl]-N-methyloxane-2-carboxamide], the IC50 (in test [1] (setting [2]); against full length MALT1) was 0.1 to 1 µM in each case.

For `CO[C@@H](C)c1c(Nc2ccc([C@H](N(C)C(=O)C3CCN(C(=O)C4CC4)C3)C(F)(F)F)cc2)cnc2nc(Cl)nn12` (stereo partly drawn) [Compound 4.3, N-[(1S)-1-[4-({2-chloro-7-[(1S)-1-methoxyethyl]-[1,2,4]triazolo[1,5-a]pyrimidin-6-yl}amino)phenyl]-2,2,2-trifluoroethyl]-1-cyclopropanecarbonyl-N-methylpyrrolidine-3-carboxamide], the half-inhibitory concentration (IC50) in test [1] (setting [2]) was 0.1 to 1 µM; on full length MALT1, less than 0.1 µM.

Turning to `CO[C@@H](C)c1c(Nc2ccc([C@H](N(C)C(=O)C3CCC(CNC(=O)OC(C)(C)C)CC3)C(F)(F)F)cc2)cnc2nc(Cl)nn12` (stereo partly drawn) [Compound 1.13, tert-butyl N-[(4-{[(1S)-1-[4-({2-chloro-7-[(1S)-1-methoxyethyl]-[1,2,4]triazolo[1,5-a]pyrimidin-6-yl}amino)phenyl]-2,2,2-trifluoroethyl](methyl)carbamoyl}cyclohexyl)methyl]carbamate], the concentration for half-maximal inhibition (IC50) (in test [1] (setting [2]); at full length MALT1) was 0.1 to 1 µM throughout.

In the case of `CO[C@@H](C)c1c(Nc2ccc([C@H](N(C)C(=O)C3CCC3)C(F)(F)F)c(C)c2)cnc2nc(Cl)nn12` [Compound 1.28, N-[(1S)-1-[4-({2-chloro-7-[(1S)-1-methoxyethyl]-[1,2,4]triazolo[1,5-a]pyrimidin-6-yl}amino)-2-methylphenyl]-2,2,2-trifluoroethyl]-N-methylcyclobutanecarboxamide], the IC50 (in test [1] (setting [2]); against full length MALT1) was more than 1 µM each time.

With `CO[C@@H](C)c1c(Nc2ccc([C@H](N(C)C(=O)[C@H]3C[C@H](C#N)C3)C(F)(F)F)cc2)cnc2nc(Cl)nn12` [Compound 1.9, (1r,3S)—N—((S)-1-(4-((2-chloro-7-((S)-1-methoxyethyl)-[1,2,4]triazolo[1,5-a]pyrimidin-6-yl)amino)phenyl)-2,2,2-trifluoroethyl)-3-cyano-N-methylcyclobutane-1-carboxamide], the IC50 (in test [1] (setting [2]); at full length MALT1) was 0.1 to 1 µM each time.

With `CO[C@@H](C)c1c(Nc2ccc(C(C)N(C)C(=O)C3CCC3)cc2)cnc2nc(Cl)nn12` (stereo partly drawn) [Compound 1.20, N-{1-[4-({2-chloro-7-[(1S)-1-methoxyethyl]-[1,2,4]triazolo[1,5-a]pyrimidin-6-yl}amino)phenyl]ethyl}-N-methylcyclobutanecarboxamide], the IC50 (in test [1] (setting [2]); against full length MALT1) was more than 1 µM throughout.

Values taken from patent US20230391781A1, “MALT1 MODULATORS AND USES THEREOF” (Rheos Medicines, Inc., priority 2020, published 2023).
